According to ChEMBL document CHEMBL4406807, “Discovery of 3,4,6-Trisubstituted Piperidine Derivatives as Orally Active, Low hERG Blocking Akt Inhibitors via Conformational Restriction and Structure-Based Design” (J Med Chem, 2019):

Assays:
[1] = MRT (0 to t) in Sprague-Dawley rat at 40 mg/kg, ig measured up to 24 hrs by LC-MS/MS analysis; format: ADME, organism-based; conditions: in vivo, po
[2] = Volume of distribution in ICR mouse at 40 mg/kg, ig measured up to 48 hrs by LC-MS/MS analysis; format: ADME, organism-based; conditions: in vivo, po
[3] = Tmax in Sprague-Dawley rat at 40 mg/kg, ig measured up to 24 hrs by LC-MS/MS analysis; format: ADME, organism-based; conditions: in vivo, po
[4] = Cmax in ICR mouse at 40 mg/kg, ig measured up to 48 hrs by LC-MS/MS analysis; format: ADME, organism-based; set-up: dose 40 mg/kg, route […]; conditions: in vivo, po
[5] = AUC (0 to t) in ICR mouse at 40 mg/kg, ig measured up to 48 hrs by LC-MS/MS analysis; format: ADME, organism-based; set-up: time < 48 hr, dose 40 mg/kg, route […]; conditions: in vivo, po
[6] = molecular target: Potassium/sodium hyperpolarization-activated cyclic nucleotide-gated channel 2 (Homo sapiens, UniProt Q9UL51); experiment: Inhibition of HCN2 (unknown origin) at 3 uM relative to control
[7] = Inhibition of recombinant His-tagged human PKA expressed in Escherichia coli using Ser/Thr 01 as substrate after 1 hr by Z-lyte assay
[8] = molecular target: Potassium voltage-gated channel subfamily A member 4 (Homo sapiens, UniProt P22459); experiment: Inhibition of Kv1.4 (unknown origin) at 3 uM relative to control
[9] = AUC (0 to t) in Sprague-Dawley rat at 40 mg/kg, ig measured up to 24 hrs by LC-MS/MS analysis; format: ADME, organism-based; set-up: time < 24 hr, dose 40 mg/kg, route […]; conditions: in vivo, po
[10] = molecular target: Potassium/sodium hyperpolarization-activated cyclic nucleotide-gated channel 1 (Homo sapiens, UniProt O60741); experiment: Inhibition of HCN1 (unknown origin) at 3 uM relative to control
[11] = Microsomal stability in rat liver microsomes assessed as compound remaining at 100 ug/ml in presence of NADPH measured at 1.5 hrs by LC/MS analysis; format: ADME, Microsome; conditions: read-out: Stability
[12] = Toxicity in BALB/c nude mouse xenografted with human SKOV3 cells assessed as effect on body weight at 40 mg/kg, po BID for 21 days; format: organism-based; conditions: in vivo, 504 h
[13] = MRT (0 to infinity) in Sprague-Dawley rat at 40 mg/kg, ig measured up to 24 hrs by LC-MS/MS analysis; format: ADME, organism-based; conditions: in vivo, po
[14] = molecular target: Inward rectifier potassium channel 2 (Homo sapiens, UniProt P63252); experiment: Inhibition of Kir2.1 (unknown origin) at 3 uM relative to control
[15] = molecular target: Potassium voltage-gated channel subfamily A member 10 (Homo sapiens, UniProt Q16322); experiment: Inhibition of Kv1.8 (unknown origin) at 3 uM relative to control
[16] = Oral bioavailability in ICR mouse at 40 mg/kg measured up to 48 hrs by LC-MS/MS analysis; format: ADME, organism-based; conditions: in vivo
[17] = Stability in human plasma at 100 ug/ml after 1 hr by LC/MS analysis; format: ADME, cell-free; conditions: read-out: Stability
[18] = molecular target: RAC-gamma serine/threonine-protein kinase (Homo sapiens, UniProt Q9Y243); experiment: Inhibition of Akt3 (unknown origin) by mobile shift assay
[19] = molecular target: Sodium channel protein type 9 subunit alpha (Homo sapiens, UniProt Q15858); experiment: Inhibition of Nav1.7 (unknown origin)
LNCaP = experiment: Antiproliferative activity against human LNCAP cells; format: functional, cell-based
[20] = molecular target: Potassium/sodium hyperpolarization-activated cyclic nucleotide-gated channel 3 (Homo sapiens, UniProt Q9P1Z3); experiment: Inhibition of HCN3 (unknown origin) at 3 uM relative to control
[21] = Tmax in ICR mouse at 40 mg/kg, ig measured up to 48 hrs by LC-MS/MS analysis; format: ADME, organism-based; conditions: in vivo, po
[22] = Toxicity in ICR mouse assessed as reduction in organ to brain weight ratio of thymus at 80 to 160 mg/kg, ig once daily for 7 days; format: organism-based; conditions: in vivo, po, 168 h
[23] = Toxicity in BALB/c nude mouse xenografted with human SKOV3 cells assessed as reduction in mouse survival at 60 to 80 mg/kg, po administered once daily for 21 days; format: organism-based; conditions: in vivo, 504 h
SK-OV-3 [24] = experiment: Antitumor activity against human SKOV3 cells xenografted in BALB/c nude mouse assessed as tumor growth inhibition at 80 mg/kg, po administered once daily for 21 days relative to control; format: functional; conditions: SK-OV-3, po, 504 h, read-out: TGI
[25] = AUC (0 to infinity) in Sprague-Dawley rat at 40 mg/kg, ig measured up to 24 hrs by LC-MS/MS analysis; format: ADME, organism-based; set-up: dose 40 mg/kg, route […], time infinity; conditions: in vivo, po
[26] = Protein binding in mouse plasma at 300 ng/ml after 8 hrs by equilibrium dialysis; format: ADME, cell-free; conditions: read-out: PPB (converted)
[27] = Toxicity in ICR mouse assessed as induction of intestinal hemorrhage at 80 to 160 mg/kg, ig; format: organism-based; conditions: in vivo, po
[28] = molecular target: Cystic fibrosis transmembrane conductance regulator (Homo sapiens, UniProt P13569); experiment: Inhibition of CFTR (unknown origin)
[29] = Microsomal stability in mouse liver microsomes assessed as compound remaining at 100 ug/ml in presence of NADPH measured at 1.5 hrs by LC/MS analysis; format: ADME, Microsome; conditions: read-out: Stability
SK-OV-3 [30] = experiment: Antitumor activity against human SKOV3 cells xenografted in BALB/c nude mouse assessed as tumor growth inhibition at 40 mg/kg, po BID for 21 days; format: functional; conditions: SK-OV-3, po, 504 h, read-out: TGI
[31] = molecular target: Serine/threonine-protein kinase AKT (Homo sapiens, UniProt P31751+Q9Y243+P31749); experiment: Inhibition of Akt in human LNCaP cells assessed as reduction in PRAS40 phosphorylation at T246 residue after 1 hr by ELISA; format: cell-based
[32] = molecular target: RAC-beta serine/threonine-protein kinase (Homo sapiens, UniProt P31751); experiment: Inhibition of human Akt2 by mobile shift assay
[33] = molecular target: RAC-alpha serine/threonine-protein kinase (Homo sapiens, UniProt P31749)
Description: Inhibition of human Akt1 expressed in Escherichia coli using STK Substrate 2-biotin as substrate incubated for 1 hr by HTRF assay

[34] = molecular target: Potassium voltage-gated channel subfamily A member 6 (Homo sapiens, UniProt P17658); experiment: Inhibition of Kv1.6 (unknown origin) at 3 uM relative to control
SK-OV-3 [35] = experiment: Antitumor activity against human SKOV3 cells xenografted in BALB/c nude mouse assessed as tumor growth inhibition at 60 mg/kg, po administered once daily for 21 days relative to control; format: functional; conditions: SK-OV-3, po, 504 h, read-out: TGI
[36] = Toxicity in BALB/c nude mouse xenografted with human SKOV3 cells assessed as effect on body weight at 60 to 80 mg/kg, po administered once daily for 21 days; format: organism-based; conditions: in vivo, 504 h
[37] = Volume of distribution in Sprague-Dawley rat at 40 mg/kg, ig measured up to 24 hrs by LC-MS/MS analysis; format: ADME, organism-based; conditions: in vivo, po
SK-OV-3 [38] = experiment: Induction of apoptosis in human SKOV3 cells at 10 uM by FACS based flow cytometric analysis (reference value: 7.63%); format: functional
[39] = Toxicity in ICR mouse assessed as maximum tolerated dose, ig administered once daily for 7 days; conditions: in vivo, po
[40] = AUC (0 to infinity) in ICR mouse at 40 mg/kg, ig measured up to 48 hrs by LC-MS/MS analysis; format: ADME, organism-based; set-up: dose 40 mg/kg, time infinity, route […]; conditions: in vivo, po

Potassium voltage-gated channel subfamily A member 6, sequence (P17658 whole entry): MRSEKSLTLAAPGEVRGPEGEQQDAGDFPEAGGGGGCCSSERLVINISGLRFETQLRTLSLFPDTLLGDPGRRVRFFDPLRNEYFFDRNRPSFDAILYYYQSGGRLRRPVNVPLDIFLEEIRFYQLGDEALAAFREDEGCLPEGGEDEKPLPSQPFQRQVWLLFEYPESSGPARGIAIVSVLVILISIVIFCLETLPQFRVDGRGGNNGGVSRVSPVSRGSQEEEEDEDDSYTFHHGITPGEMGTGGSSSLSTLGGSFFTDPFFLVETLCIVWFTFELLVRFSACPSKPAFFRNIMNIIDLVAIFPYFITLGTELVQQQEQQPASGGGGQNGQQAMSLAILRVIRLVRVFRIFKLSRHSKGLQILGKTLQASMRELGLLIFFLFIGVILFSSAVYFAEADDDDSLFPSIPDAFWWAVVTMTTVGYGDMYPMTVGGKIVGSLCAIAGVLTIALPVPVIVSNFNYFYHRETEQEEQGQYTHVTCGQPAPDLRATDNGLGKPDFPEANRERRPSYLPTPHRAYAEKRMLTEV
Sodium channel protein type 9 subunit alpha, sequence (Q15858 whole entry): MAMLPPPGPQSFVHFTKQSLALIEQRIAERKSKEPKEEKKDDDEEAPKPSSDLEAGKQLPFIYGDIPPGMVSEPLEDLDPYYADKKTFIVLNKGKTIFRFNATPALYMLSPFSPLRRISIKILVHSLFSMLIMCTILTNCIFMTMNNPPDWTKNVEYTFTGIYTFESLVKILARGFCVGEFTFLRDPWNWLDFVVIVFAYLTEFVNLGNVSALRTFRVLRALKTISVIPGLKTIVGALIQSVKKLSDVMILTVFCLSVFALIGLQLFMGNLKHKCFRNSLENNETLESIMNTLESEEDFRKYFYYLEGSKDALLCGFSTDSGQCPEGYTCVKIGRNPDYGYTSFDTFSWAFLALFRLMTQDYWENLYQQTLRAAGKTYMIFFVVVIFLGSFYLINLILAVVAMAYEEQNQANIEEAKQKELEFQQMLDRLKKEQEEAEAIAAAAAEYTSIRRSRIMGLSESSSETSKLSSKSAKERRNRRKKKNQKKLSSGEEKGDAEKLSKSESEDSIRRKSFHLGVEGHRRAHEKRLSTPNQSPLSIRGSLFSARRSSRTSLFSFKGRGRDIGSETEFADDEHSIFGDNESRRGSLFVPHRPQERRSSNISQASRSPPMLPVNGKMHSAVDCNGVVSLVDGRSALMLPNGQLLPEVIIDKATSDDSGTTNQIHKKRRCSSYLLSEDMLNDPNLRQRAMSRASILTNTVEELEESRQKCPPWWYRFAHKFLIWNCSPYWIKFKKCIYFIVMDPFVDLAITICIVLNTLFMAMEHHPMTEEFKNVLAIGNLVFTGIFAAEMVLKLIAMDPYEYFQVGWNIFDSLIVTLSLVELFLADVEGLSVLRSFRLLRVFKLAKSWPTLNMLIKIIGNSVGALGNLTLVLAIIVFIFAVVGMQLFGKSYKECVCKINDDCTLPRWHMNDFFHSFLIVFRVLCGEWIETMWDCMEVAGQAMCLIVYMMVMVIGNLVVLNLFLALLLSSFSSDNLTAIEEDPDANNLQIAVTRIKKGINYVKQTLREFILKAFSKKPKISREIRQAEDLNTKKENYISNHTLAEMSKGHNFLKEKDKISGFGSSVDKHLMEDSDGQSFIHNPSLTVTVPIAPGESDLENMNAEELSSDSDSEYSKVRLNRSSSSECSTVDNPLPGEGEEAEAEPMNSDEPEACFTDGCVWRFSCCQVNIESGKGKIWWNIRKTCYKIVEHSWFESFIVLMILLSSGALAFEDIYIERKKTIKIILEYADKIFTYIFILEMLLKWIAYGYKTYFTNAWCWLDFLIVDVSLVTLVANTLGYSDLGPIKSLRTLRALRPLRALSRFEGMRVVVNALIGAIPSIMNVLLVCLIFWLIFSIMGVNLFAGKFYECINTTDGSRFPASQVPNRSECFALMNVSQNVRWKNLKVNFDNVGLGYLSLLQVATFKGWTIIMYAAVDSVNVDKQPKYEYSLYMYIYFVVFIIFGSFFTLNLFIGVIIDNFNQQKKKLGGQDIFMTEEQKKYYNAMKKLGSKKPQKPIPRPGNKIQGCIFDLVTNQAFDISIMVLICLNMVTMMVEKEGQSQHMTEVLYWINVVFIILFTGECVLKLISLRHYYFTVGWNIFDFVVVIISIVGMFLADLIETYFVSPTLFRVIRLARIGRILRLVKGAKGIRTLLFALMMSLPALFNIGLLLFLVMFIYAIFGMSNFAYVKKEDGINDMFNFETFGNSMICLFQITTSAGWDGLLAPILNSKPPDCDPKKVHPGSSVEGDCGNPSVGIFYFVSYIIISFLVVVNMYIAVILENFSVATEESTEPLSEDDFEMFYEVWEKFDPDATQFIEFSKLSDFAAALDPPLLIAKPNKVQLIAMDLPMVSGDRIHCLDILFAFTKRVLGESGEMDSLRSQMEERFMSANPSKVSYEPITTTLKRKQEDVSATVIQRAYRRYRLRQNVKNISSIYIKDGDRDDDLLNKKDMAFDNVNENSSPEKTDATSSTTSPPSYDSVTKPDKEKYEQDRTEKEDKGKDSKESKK
Potassium/sodium hyperpolarization-activated cyclic nucleotide-gated channel 1, sequence (O60741 whole entry): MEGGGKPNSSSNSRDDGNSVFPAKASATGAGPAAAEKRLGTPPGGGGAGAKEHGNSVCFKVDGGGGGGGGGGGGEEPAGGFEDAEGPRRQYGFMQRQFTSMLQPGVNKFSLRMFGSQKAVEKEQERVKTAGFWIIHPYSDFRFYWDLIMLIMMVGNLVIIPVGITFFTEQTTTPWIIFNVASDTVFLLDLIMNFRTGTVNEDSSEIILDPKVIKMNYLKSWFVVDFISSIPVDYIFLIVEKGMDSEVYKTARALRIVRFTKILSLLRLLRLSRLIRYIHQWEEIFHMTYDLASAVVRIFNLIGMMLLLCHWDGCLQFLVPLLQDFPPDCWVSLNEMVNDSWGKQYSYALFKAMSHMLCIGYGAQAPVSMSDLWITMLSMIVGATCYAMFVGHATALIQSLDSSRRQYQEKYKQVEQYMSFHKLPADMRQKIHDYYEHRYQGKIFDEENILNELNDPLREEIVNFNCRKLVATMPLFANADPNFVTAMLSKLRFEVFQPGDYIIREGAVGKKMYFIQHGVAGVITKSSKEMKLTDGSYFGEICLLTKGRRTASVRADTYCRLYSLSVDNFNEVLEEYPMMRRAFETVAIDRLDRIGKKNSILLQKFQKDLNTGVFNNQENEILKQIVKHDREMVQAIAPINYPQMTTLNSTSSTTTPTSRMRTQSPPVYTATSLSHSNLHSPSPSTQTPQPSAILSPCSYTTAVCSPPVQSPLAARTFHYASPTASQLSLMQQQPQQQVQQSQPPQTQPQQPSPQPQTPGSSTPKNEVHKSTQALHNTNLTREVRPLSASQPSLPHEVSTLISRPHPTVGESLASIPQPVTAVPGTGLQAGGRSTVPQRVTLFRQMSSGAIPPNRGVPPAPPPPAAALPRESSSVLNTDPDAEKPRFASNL
RAC-gamma serine/threonine-protein kinase, sequence (Q9Y243 whole entry): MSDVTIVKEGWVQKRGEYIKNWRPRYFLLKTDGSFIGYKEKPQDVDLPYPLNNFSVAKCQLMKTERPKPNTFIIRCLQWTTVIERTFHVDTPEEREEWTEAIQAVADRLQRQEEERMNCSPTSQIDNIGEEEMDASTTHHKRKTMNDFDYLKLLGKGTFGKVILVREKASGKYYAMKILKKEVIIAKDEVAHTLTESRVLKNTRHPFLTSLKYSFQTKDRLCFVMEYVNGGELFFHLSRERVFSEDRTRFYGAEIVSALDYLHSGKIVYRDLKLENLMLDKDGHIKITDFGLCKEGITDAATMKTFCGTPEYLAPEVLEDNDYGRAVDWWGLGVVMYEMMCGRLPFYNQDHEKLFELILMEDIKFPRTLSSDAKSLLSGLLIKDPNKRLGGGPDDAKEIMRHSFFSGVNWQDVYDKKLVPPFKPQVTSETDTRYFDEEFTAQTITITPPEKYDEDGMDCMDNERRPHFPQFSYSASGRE
RAC-alpha serine/threonine-protein kinase, sequence (P31749 whole entry): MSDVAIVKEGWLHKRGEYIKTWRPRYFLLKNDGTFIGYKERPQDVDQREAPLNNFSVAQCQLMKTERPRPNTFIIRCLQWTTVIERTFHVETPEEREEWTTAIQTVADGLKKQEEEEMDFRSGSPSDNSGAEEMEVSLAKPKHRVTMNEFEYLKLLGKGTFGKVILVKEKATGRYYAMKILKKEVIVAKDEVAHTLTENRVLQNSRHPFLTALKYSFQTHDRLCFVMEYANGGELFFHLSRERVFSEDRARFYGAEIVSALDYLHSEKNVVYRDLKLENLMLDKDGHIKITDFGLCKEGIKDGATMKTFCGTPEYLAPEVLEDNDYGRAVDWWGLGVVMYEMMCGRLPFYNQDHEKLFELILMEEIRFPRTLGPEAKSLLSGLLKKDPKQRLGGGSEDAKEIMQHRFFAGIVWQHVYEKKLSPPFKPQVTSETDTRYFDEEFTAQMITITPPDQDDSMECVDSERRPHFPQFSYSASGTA
Potassium voltage-gated channel subfamily A member 4, sequence (P22459 whole entry): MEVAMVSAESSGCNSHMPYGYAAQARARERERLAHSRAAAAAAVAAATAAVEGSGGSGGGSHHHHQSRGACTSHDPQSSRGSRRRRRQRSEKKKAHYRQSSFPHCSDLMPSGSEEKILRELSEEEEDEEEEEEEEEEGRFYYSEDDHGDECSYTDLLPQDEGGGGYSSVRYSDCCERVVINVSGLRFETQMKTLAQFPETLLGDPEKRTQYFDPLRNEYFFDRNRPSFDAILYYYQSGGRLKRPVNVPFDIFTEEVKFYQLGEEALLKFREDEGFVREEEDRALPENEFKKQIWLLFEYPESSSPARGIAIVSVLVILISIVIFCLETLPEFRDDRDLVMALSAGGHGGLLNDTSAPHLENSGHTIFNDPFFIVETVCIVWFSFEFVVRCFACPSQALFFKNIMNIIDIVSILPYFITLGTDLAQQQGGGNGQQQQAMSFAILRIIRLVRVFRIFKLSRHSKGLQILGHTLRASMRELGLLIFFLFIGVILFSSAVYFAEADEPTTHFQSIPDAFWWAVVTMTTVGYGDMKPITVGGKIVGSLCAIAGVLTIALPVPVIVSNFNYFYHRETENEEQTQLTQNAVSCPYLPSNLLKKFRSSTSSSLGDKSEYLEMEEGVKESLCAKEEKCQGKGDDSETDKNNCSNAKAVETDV

With `CNC(=O)C[C@@H]1C[C@@H](c2ccc(F)c(F)c2)[C@H](NC(=O)c2cc(-c3c(Cl)cnn3C)c(Cl)o2)CN1` the MRT last at 24 h [1] was 5.8 h, the Vd [2] was 9 L/kg and the Tmax [3] was 1.8 h. The Cmax [4] was 3620 ng/mL, the AUC(0-t) at 48 h [5] was 21100 ng·h/mL and the “inhibition (INH)” value [6] was “Not Active”. For the same compound, the IC50 [7] was 0.3 nM, the “inhibition (INH)” value [8] was “Not Active” and the AUC(0-t) at 24 h [9] was 2440 ng·h/mL. For the same compound, the “inhibition (INH)” value [10] was “Not Active”, the remaining at 1.5 h, 100 ug/ml [11] was 89% and the Activity [12] was “Non-Toxic”. The MRT inf [13] was 11.4 h, the “inhibition (INH)” value [14] was “Not Active” and the “inhibition (INH)” value [15] was “Not Active”. The bioavailability [16] was 48.4%, the remaining at 1 h, 100 ug/ml [17] was over 99% and the IC50 [18] was 1.7 nM. For the same compound, the “inhibition (INH)” value [19] was “Not Active”, the IC50 (LNCaP) was 50 nM and the “inhibition (INH)” value [20] was “Not Active”. For the same compound, the Tmax [21] was 1 h, the Activity [22] was “Toxic” and the Activity [23] was “Non-Toxic”. The inhibition in vivo at 80 mg/kg (SK-OV-3 [24]) was 90%, the AUC(0-inf) [25] was 3090 ng·h/mL and the fraction unbound at 8 h, 300 ng/ml [26] was 0.07. The Activity [27] was “Toxic”, the “inhibition (INH)” value [28] was “Not Active” and the remaining at 1.5 h, 100 ug/ml [29] was over 99%. It also gave an inhibition in vivo at 40 mg/kg (SK-OV-3 [30]) of 82.5%, an IC50 [31] of 44 nM and an IC50 [32] of 1.2 nM. For the same compound, the IC50 [33] was 1.37 nM, the “inhibition (INH)” value [34] was “Not Active” and the inhibition in vivo at 60 mg/kg (SK-OV-3 [35]) was 79.2%. The Activity [36] was “Non-Toxic”, the Vd [37] was 147.2 L/kg and the Activity (SK-OV-3 [38]) was 79.9%. For the same compound, the MTD at 168 h [39] was at least 80 mg/kg and the AUC(0-inf) [40] was 21200 ng·h/mL.
